Source: publication PMC11763059, “GENI as an AMPK Activator Binds α and γ Subunits and Improves the Memory Dysfunction of Alzheimer’s Disease Mouse Models via Autophagy and Neuroprotection” (Antioxidants, 2025)

Experiments:
BV-2 cells = assay: IL-6 ELISA and NO assay in BV-2 cell culture supernatant; type: cell-based, murine; details: LPS 1 μg/mL
Procedure: ELISA analysis for NO and interleukin-6 (IL-6) was performed according to the manufacturer described in the material and methods section in Supplementary Information. […]
for 15 seconds, 68 ℃ for 20 seconds. All results were normalized to GAPDH RNA levels, and relative mRNA transcript levels were calculated using the ΔΔCt formula.
1.2. Enzyme-linked immunosorbent assay
BV-2 cells were treated with LPS (1 μg/mL) in the absence or presence of GENI (1, 3 and 10 μM). The cell supernatant was collected at different time points for proinflammatory mediator assay (8 h for IL-6 and 24 h for NO). NO production was quantified using an NO assay kit (S0021S, Beyotime, China), and IL-6 was detected using commercial ELISA kits (EM004, ExCell, China) according to the manufacturer’s instructions.
For NO content evaluation, firstly, the NO assay kit was removed, and Griess Reagents I and II were warmed to room temperature. The standard substance was diluted with cell culture solution to 0, 1, 2, 5, 10, 20, 40, 60 and 100 μM. […] The absorbance was determined with a microplate reader (BioTek, California, USA) at 540 nm. […]
15.625 and 0 pg/mL for use, and blank holes were set. […] About 100 μL of termination solution was added to each hole, and we measured the OD450 value immediately after mixing with a microplate reader (BioTek, California, USA).

PC12 cells = assay: Autophagy flow assay (CYTO-ID) in PC12 cells; type: cell-based
Procedure: The experiment was carried out according to the instructions of the CYTO-ID autophagy detection kit (Enzo Biochem, New York, NY, USA). In brief, we seeded 7.5 × 10^4 PC12 cells in each well of a 24-well plate using the cell slide method. The cells were incubated for 24 h at 37 °C in a 5% CO2 incubator. The experiment was divided into control (0.5% DMSO), positive control rapamycin (Rap 500 nM + chloroquine (CQ)), GENI treated-group (10 μM GENI + 10 μM CQ), 3-MA inhibitor group (5 mM 3-MA + 10 μM CQ) and GENI + 3MA group (5 mM 3-MA + 10 μM GENI + 10 μM CQ). The optimum concentration of 3MA inhibitor was referenced in the other report. At first, 0.5 mL of serum-free DMEM (plus 1% dual anti-penicillin–streptomycin) containing 3-MA (5 mM) was used to replace the medium in two groups as well as 0.5 mL of serum-free DMEM was added in the other groups, respectively. After treating for 6 h, 0.5 mL of DMEM containing DMSO (0.5%), Rap (500 nM) + CQ (10 μM), GENI (10 μM) + CQ (10 μM), CQ (10 μM), and GENI (10 μM) + CQ (10 μM) was added into the corresponding group, respectively. After 18 h, we removed the medium and washed cells twice with 1× assay buffer containing 5% FBS. We then added CYTO-ID Green detection reagent and Hocchst 33342 nuclear stain to the cells, which were incubated at 37 °C for 45 min. After three washes with 1× assay buffer, we fixed cells with 4% paraformaldehyde for 20 min. After three washes with 1× assay buffer, we observed the cells with an upright two-photon confocal microscope (Olympus FV1000BX-51, Tokyo, Japan).

[1] = target: T1, AMPK-s2 (α subunit- D157A) (Rattus norvegicus, UniProt P54645+P80385, D168A); assay: SPR analysis, AMPK mutant s2; type: binding
T1 construct: His (N); made in house
T1 sequence (P54645 13-559 D168A limits assumed): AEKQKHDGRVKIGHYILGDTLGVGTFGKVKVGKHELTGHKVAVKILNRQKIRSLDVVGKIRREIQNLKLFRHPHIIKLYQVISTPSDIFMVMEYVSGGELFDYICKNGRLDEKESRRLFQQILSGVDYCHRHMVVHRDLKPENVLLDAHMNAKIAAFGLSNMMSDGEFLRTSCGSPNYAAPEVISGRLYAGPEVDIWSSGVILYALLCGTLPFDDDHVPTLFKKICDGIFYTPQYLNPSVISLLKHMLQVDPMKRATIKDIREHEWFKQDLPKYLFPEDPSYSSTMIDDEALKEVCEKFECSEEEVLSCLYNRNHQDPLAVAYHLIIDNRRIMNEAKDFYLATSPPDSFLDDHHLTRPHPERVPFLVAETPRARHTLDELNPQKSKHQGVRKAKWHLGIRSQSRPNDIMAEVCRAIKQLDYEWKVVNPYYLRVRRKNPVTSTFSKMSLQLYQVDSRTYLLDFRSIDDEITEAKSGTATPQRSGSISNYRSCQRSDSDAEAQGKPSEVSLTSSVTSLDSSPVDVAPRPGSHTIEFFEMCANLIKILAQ
T1 sequence (P80386 whole entry partner): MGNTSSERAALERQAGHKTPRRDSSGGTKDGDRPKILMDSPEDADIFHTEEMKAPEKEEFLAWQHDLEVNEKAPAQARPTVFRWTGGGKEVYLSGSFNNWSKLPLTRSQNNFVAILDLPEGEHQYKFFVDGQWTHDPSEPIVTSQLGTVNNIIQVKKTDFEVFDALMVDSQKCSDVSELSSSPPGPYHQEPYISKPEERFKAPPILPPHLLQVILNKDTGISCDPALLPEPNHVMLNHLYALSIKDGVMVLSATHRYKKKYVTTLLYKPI
T1 sequence (P80385 whole entry): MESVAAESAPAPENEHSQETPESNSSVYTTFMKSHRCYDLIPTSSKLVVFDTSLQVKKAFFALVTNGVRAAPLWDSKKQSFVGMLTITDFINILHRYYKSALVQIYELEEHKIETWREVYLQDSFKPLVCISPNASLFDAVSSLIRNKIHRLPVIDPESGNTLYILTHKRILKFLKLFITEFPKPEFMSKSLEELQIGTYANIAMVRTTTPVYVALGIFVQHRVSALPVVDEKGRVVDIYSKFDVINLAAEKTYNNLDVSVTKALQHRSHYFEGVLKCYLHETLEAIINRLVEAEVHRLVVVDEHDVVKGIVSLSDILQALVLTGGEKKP

[2] = target: T2, AMPK-s1 (α subunit- D148A) (Rattus norvegicus, UniProt P54645+P80385, D159A); assay: SPR analysis, AMPK mutant s1; type: binding
T2 construct: His (N); made in house
T2 sequence (P54645 13-559 D159A limits assumed): as the sequence (P54645 13-559 D168A limits assumed) above, with D147A, A156D counted along it
T2 sequence (P80386 whole entry partner): as the sequence (P80386 whole entry partner) above
T2 sequence (P80385 whole entry): as the sequence (P80385 whole entry) above
Procedure: Mammalian AMPK subunits (His-α1, β1, and γ1) were cloned into a pET-3d vector, and protein expression and purification were similar to the literature.
SPR analysis was performed with a Biacore T200 instrument (GE Healthcare). Firstly, the purred His-tagged AMPK containing α1β1γ1 protein was captured onto an activated carboxymethylated 5 (CM5) chip using amine coupling to levels ranging from 4000 RU to 6000 RU. Secondly, GENI was dissolved in PBS-P buffer solution (0.05% (v/v) Tween 20 and PBS), and the concentration of GENI was 64 μM. Thirdly, the solution of GENI was diluted to 32 μM, 16 μM, 8 μM, 4 μM, 2 μM, 1 μM and 0.5 μM with PBS-P buffer solution. The sample was filtered by pumping through a […] membrane. A gradient concentration of GENI was injected at a flow rate of 30 μL/min in a running buffer (0.05% (v/v) Tween 20 and PBS). The data were analyzed with Biacore evaluation software (T200 version 2.0) and fitted to the 1:1 Langmuir binding model, and the kinetic parameters were derived.
The non-covalent interaction between drugs and proteins is an important way to exert drug efficacy, and its mode of action and binding affinity usually determine the utilization and biological activity of drugs. AMPK is a heterotrimer complex consisting of an α subunit containing the kinase domain and two regulatory subunits (β- and γ-). […]

[3] = SPR, association rate, read-out: Ka

In the case of `CC(C)CCOC(=O)C1=CO[C@@H](O[C@@H]2O[C@H](CO)[C@@H](O)[C@H](O)[C@H]2O)C2C(CO)=CCC12` (some centres unmarked) [GENI, Geniposidic 4-isoamyl ester], the “secretion of LPS-stimulated pro-inflammatory IL-6” value (BV-2 cells; 8 h) is reported as “significantly reduced”, the “production of NO” value (BV-2 cells; 24 h) is reported as “significantly reduced” and the “fluorescence intensity of autophagosomes” value (PC12 cells; 10 μM GENI + 10 μM CQ, compared with the control group) is reported as “significantly increased”. For the same compound, the “autophagy effect relative to positive control Rap at 500 nM” value (PC12 cells; GENI at 10 μM) was “comparable”, the “dose-dependent response in SPR” value ([1]; D157 replaced with A157) was “No significant dose-dependent response” and the kon [1, 3] was 9120 M⁻¹ s⁻¹. The “dose-dependent response in SPR” value ([2]; D148 replaced with A148) was “No significant dose-dependent response” and the kon [2, 3] was 9360 M⁻¹ s⁻¹.
